# System: MAPK phosphorylation
# Test: MAPK cell-based phosphorylation assay (ELISA or Western), PANC-1
# Details: Homo sapiens; 10 μM, PANC-1 (Table 4C)
# Summary of the method: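 Serum-starved (0.5% FBS overnight) cells given compound at 10 μM or serial dilutions (0.3% DMSO) for 6 h at 37 °C, then 1.5 ng/mL EGF for 15 min. Phospho-MAPK read by fixed-cell ELISA (fluorescence, 595 nm) or by Western blot of lysates with anti-phospho-p44/42 (Thr202/Tyr204).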
row,SMILES,inhibition at 10 µM
1,Cn1ccc(-c2sc3nc(-c4nccn4C)nc(N[C@H]4C[C@@H](O)C4)c3c2-c2ccccc2)n1 [drawing 508],1 to 25%
2,CO[C@H]1C[C@@H](Nc2nc(-c3ncc[nH]3)nc3sc(-c4ccn(C)n4)c(-c4ccccc4)c23)C1 [drawing 510],0%
3,CO[C@H]1CC[C@@H](Nc2nc(-c3ncc[nH]3)nc3sc(-c4ccn(C)n4)c(-c4ccccc4)c23)C1 [drawing 511],76 to 100%
4,CO[C@H]1CC[C@@H](Nc2nc(-c3nccn3C)nc3sc(-c4ccn(C(C)C)n4)c(-c4ccccc4)c23)C1 [drawing 512],76 to 100%
5,COc1nc(-c2ccccn2)nc2c(-c3ccccn3)csc12 [drawing 513],0%
6,CO[C@H]1C[C@@H](Nc2nc(-c3nccn3C)nc3sc(-c4ccn(C)n4)c(C)c23)C1 [drawing 514],76 to 100%
7,CO[C@H]1CC[C@@H](Nc2nc(-c3nccn3C)nc3sc(-c4ccn(C)n4)c(C)c23)C1 [drawing 515],0%
8,Cc1c(-c2ccn(C)n2)sc2nc(-c3nccn3C)nc(NCCCS(C)(=O)=O)c12 [drawing 516],0%
9,Cc1c(-c2ccn(C)n2)sc2nc(-c3nccn3C)nc(NCCCC(=O)N(C)C)c12 [drawing 517],0%
10,Cc1c(-c2ccn(C)n2)sc2nc(-c3nccn3C)nc(NCCOC(=O)N(C)C)c12 [drawing 518],0%
11,CO[C@H]1CC[C@@H](Nc2nc(-c3nccn3C)nc3sc(-c4ccn(C(C)C)n4)c(C)c23)C1 [drawing 519],76 to 100%
12,CO[C@H]1C[C@@H](Nc2nc(-c3nccn3C)nc3sc(C(=O)NC(C)C)c(-c4ccccc4)c23)C1 [drawing 520],0%
13,COCCNC(=O)c1sc2nc(-c3nccn3C)nc(N[C@H]3C[C@@H](OC)C3)c2c1-c1ccccc1 [drawing 521],0%
14,CO[C@H]1C[C@@H](Nc2nc(-c3nccn3C)nc3sc(C(=O)N4CCOCC4)c(-c4ccccc4)c23)C1 [drawing 522],0%
15,COC1CCN(C(=O)c2sc3nc(-c4nccn4C)nc(N[C@H]4C[C@@H](OC)C4)c3c2-c2ccccc2)C1 (some centres unmarked) [drawing 523],0%
16,CO[C@H]1CC[C@@H](Nc2nc(-c3nccn3C)nc3sc(C(=O)NC(C)C)c(-c4ccccc4)c23)C1 [drawing 524],0%
17,COCCNC(=O)c1sc2nc(-c3nccn3C)nc(N[C@@H]3CC[C@H](OC)C3)c2c1-c1ccccc1 [drawing 525],0%
18,CO[C@H]1CC[C@@H](Nc2nc(-c3nccn3C)nc3sc(C(=O)N4CCCC4)c(-c4ccccc4)c23)C1 [drawing 526],0%
19,CO[C@H]1CC[C@@H](Nc2nc(-c3nccn3C)nc3sc(C(=O)N4CCOCC4)c(-c4ccccc4)c23)C1 [drawing 527],0%

# System: IL-6
# Test: Mouse IL6 quantification assay, LPS-stimulated RAW 264.7 macrophages
# Type: cell-based
# Details: RAW264.7, 10 μM, LPS (100 ng/ml) added concurrently, 5 hours, RAW 264.7
# Description: (§1) Cell lines: Abelson murine leukemia virus transformed macrophage cell line RAW 264.7 was purchased from ATCC and grown in complete DMEM-High Glucose medium supplemented with penicillin (100 U/mL), streptomycin (100 μg/mL), and 10% heat-inactivated FBS at 37° C. in a humidified incubator with 5% CO2.
# (§2) Method: Cells were plated at 25000-40000 cells/well density in a 96-well plate. After a 3-hour incubation, macrophages were starved with DMEM plus 0.5% FBS overnight. The next day the small molecules to be tested were added to the cells in the final concentration of 30 μM (with 0.3% DMSO) 3 hours prior to LPS stimulation (100 ng/ml). After LPS stimulation cells were incubated at 37° C. for 16 h. Alternatively, compounds were also tested at 10 μM and LPS (100 ng/ml) was added concurrently and incubated 5 hours at 37° C. At the end of the incubation periods, culture medium was collected and production of LPS-induced TNF-α and IL-6 cytokine was measured using ELISA detection kits.
# (§3) Sandwich ELISA: The ELISA Immunoassays Quantikine Mouse TNF-alpha (catalog number MTA00B) and IL6 (catalog number M6000B) were purchased from R&D Systems Inc., Minneapolis, MN. These 4.5 hours solid phase ELISAs were used to measure mouse TNF-α or IL-6 levels in macrophages culture supernatants. Assays were executed according to the manufacturer specifications.
row,SMILES,inhibition at 10 µM
1,Cn1ccc(-c2sc3nc(-c4nccn4C)nc(N[C@@H]4CC[C@H](O)C4)c3c2-c2ccccc2)n1 (racemic) [drawing 774],26 to 50%

# Same assay, conditions: RAW264.7, 30 μM, LPS-stimulated RAW 264.7 macrophages
row,SMILES,inhibition at 30 µM
1,Oc1nc(-c2ccccn2)nc(CN2CCc3ccccc3C2)c1O,0%
2,COc1cccc(-c2csc3c(O)nc(-c4nccn4C)nc23)c1Cl [drawing 663],76 to 100%
3,Cn1ccnc1-c1nc(O)c2scc(-c3ccccn3)c2n1 [drawing 664],76 to 100%
4,Oc1nc(-c2ncc3n2CCCC3)nc2c(-c3ccccn3)csc12 [drawing 665],76 to 100%
5,Oc1nc(-c2cn3ccccc3n2)nc2c(-c3ccccn3)csc12 [drawing 666],76 to 100%
6,COCCn1ccnc1-c1nc(O)c2scc(-c3ccccn3)c2n1 [drawing 667],76 to 100%
7,Cc1cc(Cn2ccnc2-c2nc(O)c3scc(-c4ccccn4)c3n2)on1 [drawing 668],76 to 100%
8,Oc1nc(-c2nccn2Cc2ccccn2)nc2c(-c3ccccn3)csc12 [drawing 669],76 to 100%
9,COc1cccc(Cn2ccnc2-c2nc(O)c3scc(-c4ccccn4)c3n2)c1 [drawing 670],76 to 100%
10,Cc1cnc(-c2nc(O)c3scc(-c4ccccn4)c3n2)n1C [drawing 671],76 to 100%
11,Cc1cn(C)c(-c2nc(O)c3scc(-c4ccccn4)c3n2)n1 [drawing 672],76 to 100%
12,Oc1nc(-c2ncc3ccccn23)nc2c(-c3ccccn3)csc12 [drawing 673],76 to 100%
13,Oc1nc(-c2cn3cccnc3n2)nc2c(-c3ccccn3)csc12 [drawing 674],0%
14,Oc1nc(-c2cn(-c3ccccc3)cn2)nc2c(-c3ccccn3)csc12 [drawing 675],76 to 100%
15,COc1ccc(Cn2cnc(-c3nc(O)c4scc(-c5ccccn5)c4n3)c2)cc1 [drawing 676],76 to 100%
16,COCCCNc1nc(-c2nccn2C)nc2sc(-c3ccn(C)n3)c(-c3ccccc3)c12 [drawing 677],76 to 100%
17,COCCCN(C)c1nc(-c2nccn2C)nc2sc(-c3ccn(C)n3)c(-c3ccccc3)c12 [drawing 678],1 to 25%
18,COCC(C)Nc1nc(-c2nccn2C)nc2sc(-c3ccn(C)n3)c(-c3ccccc3)c12 (centres unmarked) [drawing 679],76 to 100%
19,COC1CCN(c2nc(-c3nccn3C)nc3sc(-c4ccn(C)n4)c(-c4ccccc4)c23)C1 (centres unmarked) [drawing 680],26 to 50%
20,Cn1ccc(-c2sc3nc(-c4nccn4C)nc(NC4CCOCC4)c3c2-c2ccccc2)n1 [drawing 681],26 to 50%
21,Cn1ccc(-c2sc3nc(-c4nccn4C)nc(NCC4CCOC4)c3c2-c2ccccc2)n1 (centres unmarked) [drawing 682],76 to 100%
22,CO[C@H]1CCC(Nc2nc(-c3nccn3C)nc3sc(-c4ccn(C)n4)c(-c4ccccc4)c23)C1 (some centres unmarked) [drawing 683],76 to 100%
23,CO[C@@H]1CCC(Nc2nc(-c3nccn3C)nc3sc(-c4ccn(C)n4)c(-c4ccccc4)c23)C1 (some centres unmarked) [drawing 684],76 to 100%

# System: TNF-α
# Test: Mouse TNF alpha quantification assay, LPS-stimulated RAW 264.7 macrophages
# Type: cell-based
# Details: RAW264.7, 10 μM, LPS (100 ng/ml) added concurrently, 5 hours, RAW 264.7, read-out: TNFα % Inhibition
# Description: as §1, §2, §3
row,SMILES,inhibition at 10 µM
1,Cn1ccc(-c2sc3nc(-c4nccn4C)nc(N[C@@H]4CC[C@H](O)C4)c3c2-c2ccccc2)n1 (racemic) [drawing 774],1 to 25%

# Same assay, conditions: RAW264.7, 30 μM, LPS-stimulated RAW 264.7 macrophages
row,SMILES,inhibition at 30 µM
1,Oc1nc(-c2ccccn2)nc(CN2CCc3ccccc3C2)c1O,0%
2,COc1cccc(-c2csc3c(O)nc(-c4nccn4C)nc23)c1Cl [drawing 663],26 to 50%
3,Cn1ccnc1-c1nc(O)c2scc(-c3ccccn3)c2n1 [drawing 664],76 to 100%
4,Oc1nc(-c2ncc3n2CCCC3)nc2c(-c3ccccn3)csc12 [drawing 665],51 to 75%
5,Oc1nc(-c2cn3ccccc3n2)nc2c(-c3ccccn3)csc12 [drawing 666],76 to 100%
6,COCCn1ccnc1-c1nc(O)c2scc(-c3ccccn3)c2n1 [drawing 667],76 to 100%
7,Cc1cc(Cn2ccnc2-c2nc(O)c3scc(-c4ccccn4)c3n2)on1 [drawing 668],51 to 75%
8,Oc1nc(-c2nccn2Cc2ccccn2)nc2c(-c3ccccn3)csc12 [drawing 669],51 to 75%
9,COc1cccc(Cn2ccnc2-c2nc(O)c3scc(-c4ccccn4)c3n2)c1 [drawing 670],76 to 100%
10,Cc1cnc(-c2nc(O)c3scc(-c4ccccn4)c3n2)n1C [drawing 671],76 to 100%
11,Cc1cn(C)c(-c2nc(O)c3scc(-c4ccccn4)c3n2)n1 [drawing 672],76 to 100%
12,Oc1nc(-c2ncc3ccccn23)nc2c(-c3ccccn3)csc12 [drawing 673],76 to 100%
13,Oc1nc(-c2cn3cccnc3n2)nc2c(-c3ccccn3)csc12 [drawing 674],0%
14,Oc1nc(-c2cn(-c3ccccc3)cn2)nc2c(-c3ccccn3)csc12 [drawing 675],0%
15,COc1ccc(Cn2cnc(-c3nc(O)c4scc(-c5ccccn5)c4n3)c2)cc1 [drawing 676],1 to 25%
16,COCCCNc1nc(-c2nccn2C)nc2sc(-c3ccn(C)n3)c(-c3ccccc3)c12 [drawing 677],76 to 100%
17,COCCCN(C)c1nc(-c2nccn2C)nc2sc(-c3ccn(C)n3)c(-c3ccccc3)c12 [drawing 678],51 to 75%
18,COCC(C)Nc1nc(-c2nccn2C)nc2sc(-c3ccn(C)n3)c(-c3ccccc3)c12 (centres unmarked) [drawing 679],76 to 100%
19,COC1CCN(c2nc(-c3nccn3C)nc3sc(-c4ccn(C)n4)c(-c4ccccc4)c23)C1 (centres unmarked) [drawing 680],1 to 25%
20,Cn1ccc(-c2sc3nc(-c4nccn4C)nc(NC4CCOCC4)c3c2-c2ccccc2)n1 [drawing 681],1 to 25%
21,Cn1ccc(-c2sc3nc(-c4nccn4C)nc(NCC4CCOC4)c3c2-c2ccccc2)n1 (centres unmarked) [drawing 682],76 to 100%
22,CO[C@H]1CCC(Nc2nc(-c3nccn3C)nc3sc(-c4ccn(C)n4)c(-c4ccccc4)c23)C1 (some centres unmarked) [drawing 683],76 to 100%
23,CO[C@@H]1CCC(Nc2nc(-c3nccn3C)nc3sc(-c4ccn(C)n4)c(-c4ccccc4)c23)C1 (some centres unmarked) [drawing 684],76 to 100%

# System: AKT phosphorylation
# Test: Western AKT cell-based phosphorylation assay, PANC-1
# Details: Homo sapiens, PANC-1 (Table 4C)
# Summary of the method: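 PANC-1 cells, serum-starved overnight in 0.5% FBS, were treated with compound at 10 μM (0.3% DMSO) for 6 h at 37 °C and then stimulated with 1.5 ng/ml EGF for 15 min. Lysates (15–50 μg) were immunoblotted for phospho-Akt Ser473, with ECL detection.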
row,SMILES,inhibition at 10 µM
1,Cn1ccc(-c2sc3nc(-c4nccn4C)nc(N[C@H]4C[C@@H](O)C4)c3c2-c2ccccc2)n1 [drawing 508],0%
2,CO[C@H]1C[C@@H](Nc2nc(-c3ncc[nH]3)nc3sc(-c4ccn(C)n4)c(-c4ccccc4)c23)C1 [drawing 510],0%
3,CO[C@H]1CC[C@@H](Nc2nc(-c3ncc[nH]3)nc3sc(-c4ccn(C)n4)c(-c4ccccc4)c23)C1 [drawing 511],76 to 100%
4,CO[C@H]1CC[C@@H](Nc2nc(-c3nccn3C)nc3sc(-c4ccn(C(C)C)n4)c(-c4ccccc4)c23)C1 [drawing 512],76 to 100%
5,COc1nc(-c2ccccn2)nc2c(-c3ccccn3)csc12 [drawing 513],0%
6,CO[C@H]1C[C@@H](Nc2nc(-c3nccn3C)nc3sc(-c4ccn(C)n4)c(C)c23)C1 [drawing 514],0%
7,CO[C@H]1CC[C@@H](Nc2nc(-c3nccn3C)nc3sc(-c4ccn(C)n4)c(C)c23)C1 [drawing 515],0%
8,Cc1c(-c2ccn(C)n2)sc2nc(-c3nccn3C)nc(NCCCS(C)(=O)=O)c12 [drawing 516],0%
9,Cc1c(-c2ccn(C)n2)sc2nc(-c3nccn3C)nc(NCCCC(=O)N(C)C)c12 [drawing 517],0%
10,Cc1c(-c2ccn(C)n2)sc2nc(-c3nccn3C)nc(NCCOC(=O)N(C)C)c12 [drawing 518],0%
11,CO[C@H]1CC[C@@H](Nc2nc(-c3nccn3C)nc3sc(-c4ccn(C(C)C)n4)c(C)c23)C1 [drawing 519],0%
12,CO[C@H]1C[C@@H](Nc2nc(-c3nccn3C)nc3sc(C(=O)NC(C)C)c(-c4ccccc4)c23)C1 [drawing 520],0%
13,COCCNC(=O)c1sc2nc(-c3nccn3C)nc(N[C@H]3C[C@@H](OC)C3)c2c1-c1ccccc1 [drawing 521],0%
14,CO[C@H]1C[C@@H](Nc2nc(-c3nccn3C)nc3sc(C(=O)N4CCOCC4)c(-c4ccccc4)c23)C1 [drawing 522],0%
15,COC1CCN(C(=O)c2sc3nc(-c4nccn4C)nc(N[C@H]4C[C@@H](OC)C4)c3c2-c2ccccc2)C1 (some centres unmarked) [drawing 523],0%
16,CO[C@H]1CC[C@@H](Nc2nc(-c3nccn3C)nc3sc(C(=O)NC(C)C)c(-c4ccccc4)c23)C1 [drawing 524],0%
17,COCCNC(=O)c1sc2nc(-c3nccn3C)nc(N[C@@H]3CC[C@H](OC)C3)c2c1-c1ccccc1 [drawing 525],0%
18,CO[C@H]1CC[C@@H](Nc2nc(-c3nccn3C)nc3sc(C(=O)N4CCCC4)c(-c4ccccc4)c23)C1 [drawing 526],0%
19,CO[C@H]1CC[C@@H](Nc2nc(-c3nccn3C)nc3sc(C(=O)N4CCOCC4)c(-c4ccccc4)c23)C1 [drawing 527],0%
